Experimental findings from paper PMC6353076, “Impact of CodY protein on metabolism, sporulation and virulence in Clostridioides difficile ribotype 027” (PLoS ONE, 2019) are described below.

For the assay, the target named is T1, CdCodY GAF domain (Clostridioides difficile, UniProt Q18BE1).
T1 construct: gene codY; N-terminal GAF domain, CdCodY(1-156); six molecules in the asymmetric unit
The experiment in a line: X-ray crystal structure, […] A. Format: binding. Conditions: GAF-domain effector pocket; contacts N40, Y42, D60, S62, F74, F101, E104, K110, S130.

Molecules are shown by their SMILES.

T1 sequence (Q18BE1 entry or part of it): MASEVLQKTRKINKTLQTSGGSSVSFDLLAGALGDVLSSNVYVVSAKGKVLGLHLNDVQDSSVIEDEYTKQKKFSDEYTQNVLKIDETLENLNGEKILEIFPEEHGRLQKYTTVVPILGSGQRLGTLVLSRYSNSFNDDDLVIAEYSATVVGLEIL

With `CC[C@H](C)[C@H](N)C(=O)O` [isoleucine], the “X-ray crystal structure, 1.7 A” value is “The crystal structure of the GAF domain of CdCodY bound to isoleucine was solved”.
